Assays:
[1] = system: mitochondrial division; settings: mitochondrial division inhibitor; cited from earlier work
[2] = system: dynamin 2; settings: dynamin 2 inhibitor, value stated in the list of known inhibitors; cited from earlier work
[3] = system: Mtm1^-/y mice; test: Disease Severity Score (DSS) in Mtm1-/y mice; format: in vivo; settings: at 12 weeks old, score 0 (no disease) to 5 (most severe), ASO 3 mg/kg i.p. weekly, tamoxifen 10 mg/kg of diet
Procedure: (§1) For experiments in mice, the ASOs were injected intraperitonally (i.p.) weekly from 4 weeks to 12 weeks of age at 3 mg/kg.
(§2) For experiments in mice, pellets of diet were supplemented with tamoxifen citrate (SAFE; […]) to achieve 10 mg of tamoxifen free base per kg of chow. Pellets of diet devoid of tamoxifen were used as a control (to be administered with ASO-ctrl).
(§3) Mtm1 deficient mice in the 129Pas genetic background were obtained from Dr. Laporte (IGBMC, Illkirch, France). Wild type males were bred with Mtm1^+/- heterozygous females. The Mtm1^+/y (wild type, i.e. WT) and Mtm1^-/y (mutant) males in the progeny were used in the experiments. The Mtm1^-/y knock-out mice reproduce the hallmarks of XL-CNM patients such as abnormal position of the organelles, defects in the localization of the nuclei and muscle atrophy, associated with progressive muscle weakness including respiratory weakness, leading to death between 6 and 14 weeks of age (Buj-Bello et al., Proc Natl Acad Sci USA, 2002; 99: 15060-15065; Al-Qusairi,et al, Proc Natl Acad Sci USA, 2009; 106: 18763-18768).
(§4) Weekly i.p. injections of 3 mg/kg of antisense were performed in the Mtm1^+/y and Mtm1^-/y mice, from 4 to 12 weeks of age. […]
Disease Severity Score was calculated to monitor the clinical appearance of mice (n = 10 per group). […]

[4] = system: Dnm2 mRNA; test: Dnm2 mRNA expression by RT-qPCR in C2C12 cells; format: cell-based; settings: C2C12 mouse myoblast cells, 24 hrs, 20 µM (with PBS control, or with ASO-ctrl)
Procedure: For experiments in mouse immortalized myoblasts (C2C12 cells), the ASOs were electroporated at 2 µM in 2 mm cuvettes, at 150V for 5 ms (one pulse) for 2 million cells in a volume of 400 µl PBS, or in 4mm cuvettes, at 300V for 5 ms (one pulse) for 4 million cells in a volume of 800 µl PBS. Table 2. Antisense oligonucleotides
For experiments conducted in mouse immortalized myoblasts (C2C12 cells), 4-hydroxytamoxifen (5 mg/ml solution, Sigma #SML-1666) was used. The stock solution at 13mM in ethanol:isopropanol (95:5) was diluted in cell culture medium to obtain a working concentration of 20 µM. For vehicle control cells (no treatment), ethanol:isopropanol (95:5) was added to the cell culture medium.
The […] immortalized myoblast cells were cultured in DMEM with 1g/l glucose (Gibco) with 20% FBS (Gibco) + 40 µg/ml Gentamycin (Gibco). The cells were electroporated with either PBS, ASO-ctrl or ASO-Dnm2 at 2 µM, and/or treated with 4-OH-tamoxifen at 20 µM in the cell culture medium, as described in 1.1. The experiment was done in duplicate wells, in 6-well plates. After 24 hrs of treatment, cells were collected and either RNA was extracted for RT-qPCR or protein was extracted for Western Blot. […]

[5] = system: Mtm1^-/y mice; test: Lifespan / survival of Mtm1-/y mice (XL-CNM model); format: in vivo; settings: at the end of the study (12 weeks old), ASO 3 mg/kg i.p. weekly from 4 weeks, tamoxifen 10 mg/kg of diet
Procedure: as §1, §2, §3
Animals were followed for up to 12 weeks old, with weekly recordings of clinical signs and survival. Treatments were started when disease started to manifest, i.e. at 4 weeks of age.
as §4

[6] = system: Mtm1^-/y mice; test: Body weight of Mtm1-/y mice; format: in vivo; settings: at 12 weeks, mean ± SD, ASO 3 mg/kg i.p. weekly, tamoxifen 10 mg/kg of diet
Procedure: as §1, §2, §3
Weekly i.p. injections of 3 mg/kg of antisense were performed in the Mtm1^+/y and Mtm1^-/y mice, from 4 to 12 weeks of age. Alongside these injections, mice were fed pellets of diets containing tamoxifen citrate (10 mg/kg) or devoid of tamoxifen. […]

[7] = system: DNM2; test: DNM2 protein expression by Western blot in C2C12 cells; format: cell-based, mouse; settings: C2C12 cells, 5, 10 or 20 µM (with PBS control, or with ASO-ctrl)
Procedure: For experiments in mouse immortalized myoblasts (C2C12 cells), the ASOs were electroporated at 2 μM in 2 mm cuvettes, at 150V for 5 ms (one pulse) for 2 million cells in a volume of 400 μl PBS, or in 4mm cuvettes, at [MUT] for 5 ms (one pulse) for 4 million cells in a volume of 800 μl PBS. […] The [MUT] immortalized myoblast cells were cultured in DMEM with 1g/l glucose (Gibco) with 20% FBS (Gibco) + 40 μg/ml Gentamycin (Gibco). The cells were electroporated with either PBS, ASO-ctrl or ASO-Dnm2 at 2 μM, and/or treated with 4-OH-tamoxifen at 20 μM in the cell culture medium, as described in 1.1. The experiment was done in duplicate wells, in 6-well plates. After 24 hrs of treatment, cells were collected and either RNA was extracted for RT-qPCR or protein was extracted for Western Blot. Myoblast C2C12 cells, treated with either (i) PBS + Tamoxifen (20 μM), (ii) ASO ctrl (2 μM), (iii) ASO ctrl (2 μM) + Tamoxifen (20 μM), (iv) ASO-Dnm2 (2 μM) or (v) ASO-Dnm2 (2 μM) + Tamoxifen (20 μM), were lysed in RIPA buffer (Thermo Scientific) supplemented with Halt protease inhibitor cocktail (Thermo Scientific). Protein concentration was determined with the BioRad DC protein Assay kit. Samples were diluted in RIPA buffer, NuPAGE LDS sample buffer and NuPAGE Sample Reducing Agent and denaturated at 70°C for 10 min. […]

[8] = system: Mtm1^-/y mice; test: Hanging test (whole-body strength) in Mtm1-/y mice; format: in vivo; settings: at 12 weeks of age, mean ± SD, cut-off 60 seconds, ASO 3 mg/kg i.p. weekly, tamoxifen 10 mg/kg of diet
Procedure: as §1, §2
as §3, with “18763-18768). […]” for “18763-18768).”
Whole-body strength of mice was evaluated using the hanging test. […] The latency time for the mouse to fall in the cage was measured, with a cut-off time of 60 seconds. […] The maximum hanging time was recorded. […]

COc1cc(-n2c(S)nc3ccccc3c2=O)c(Cl)cc1Cl [m-divi 1, 3-(2,4-Dichloro-5-methoxyphenyl)-2-sulfanylquinazolin-4(3H)-one]
IC50 [1]: 10 µM

O=C(NN=Cc1cc(O)c(O)cc1O)c1cc2ccccc2cc1O [hydroxy-Dynasore, 3-hydroxy-N'-[(2,4,5-trihydroxyphenyl)methylidene]naphthalene-2-carbohydrazide]
IC50 [2]: 2.6 µM

CC/C(=C(\c1ccccc1)c1ccc(OCCN(C)C)cc1)c1ccccc1 [tamoxifen, 2-[4-[(Z)-1,2-diphenylbut-1-enyl]phenoxy]-N,N-dimethylethanamine]
Disease Severity Score (DSS), mean score [3]: 3.3 | Dnm2 mRNA expression [4]: did not reduce | survival rate [5]: 70% | body weight [6]: 15.3 ± 0.4 g | DNM2 protein expression [7]: did not reduce | holding time (hanging test) [8]: 35.3 ± 24.4 s

Reference: EP4311546A1, “COMBINATION THERAPY FOR MYOPATHIES” (Dynacure, priority 2022, dated 2024)
